Measured values published in US8192962B2, “Processes for detecting toxic substances” (Daikin Industries, Ltd., priority 2001, dated 2012).

Test system: Mitochondria-located protein genes
Test: DNA chip mRNA expression in yeast, mitochondria-located protein genes (Table 2)
Assay type: cell-based, Saccharomyces cerevisiae S288C
Details: cells incubated two hours with the chemical substance
How it was run: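 Whole-genome yeast DNA chip hybridization (65° C., >12 h) of Cy-labeled cDNA from S288C cells exposed 2 h at 25° C. to a sub-lethal toxicant dose in YPD; value is intensity relative to chemical-free control.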

Measured: The level of expressed mRNA in the presence of chemical substance/The level of expressed mRNA in the absence of chemical substance

Cl[C@H]1[C@H](Cl)[C@@H](Cl)[C@@H](Cl)[C@H](Cl)[C@H]1Cl [(7), γ-hexachlorocyclohexane]
1.5: yeast gene YBR044C | yeast gene YBR221C | yeast gene YKL016C | yeast gene YKL170W | yeast gene YOR187W | yeast gene YPR067W | yeast gene YPR134W
1.4: yeast gene YBR251W | yeast gene YCL057W | yeast gene YFL016C | yeast gene YKL003C | yeast gene YNL071W | yeast gene YOR316C | yeast gene YPR024W
2.2: yeast gene YIL155C
1.2: yeast gene YBR185C | yeast gene YBR282W | yeast gene YCR046C | yeast gene YDR347W | yeast gene YML054C | yeast gene YMR089C | yeast gene YMR267W | yeast gene YNL055C | yeast gene YOR150W | yeast gene YPL134C | yeast gene YPL135W | yeast gene YPR037C
2.5: yeast gene YOR037W
0.8: yeast gene YDL067C | yeast gene YJL166W | yeast gene YML120C | yeast gene YMR152W | yeast gene YMR203W | yeast gene YPL040C
1.1: yeast gene YBR003W | yeast gene YDL181W | yeast gene YDR377W | yeast gene YGL018C | yeast gene YLR295C | yeast gene YNL073W
1.7: yeast gene YDR231C | yeast gene YGR076C | yeast gene YJL096W | yeast gene YMR083W | yeast gene YOL096C | yeast gene YOR020C
6.9: yeast gene YKL142W
2.0: yeast gene YBR122C
1.8: yeast gene YCR083W | yeast gene YLR259C | yeast gene YML129C | yeast gene YPR047W
1.9: yeast gene YMR023C
2.1: yeast gene YGR028W | yeast gene YKL194C
3.9: yeast gene YDR258C | yeast gene YGR244C
1.6: yeast gene YER178W | yeast gene YJL180C | yeast gene YOR100C
8.0: yeast gene YBL038W
0.7: yeast gene YEL024W | yeast gene YHR008C | yeast gene YJR077C | yeast gene YPL215W
3.7: yeast gene YGR008C
0.5: yeast gene YDR529C | yeast gene YJL133W | yeast gene YKL141W | yeast gene YKR066C | yeast gene YOR176W
0.3: yeast gene YLL041C
0.6: yeast gene YDR178W | yeast gene YEL039C | yeast gene YGL187C | yeast gene YJL102W | yeast gene YKL148C | yeast gene YLR304C | yeast gene YNL104C | yeast gene YNL256W
2.3: yeast gene YMR035W
1.0: yeast gene YAL039C | yeast gene YBL022C | yeast gene YBR091C | yeast gene YDL198C | yeast gene YDR298C | yeast gene YGL191W | yeast gene YGR174C | yeast gene YJR045C | yeast gene YJR121W | yeast gene YLR038C | yeast gene YOR142W
0.9: yeast gene YBL030C | yeast gene YBL099W | yeast gene YGR082W | yeast gene YLR348C
1.3: yeast gene YDR079W | yeast gene YGR062C | yeast gene YOR130C | yeast gene YPL262W
